Experimental data published in PubChem BioAssay (NCI).
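96-well plates; 48 h exposure; 5 concentrations. Endpoints by linear interpolation between flanking doses. Not reached: highest tested concentration assigned. The concentration for full growth arrest is given as TGI.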

Key:
Assay in all cases: NCI tumour cell line growth inhibition, 48 h
[1] = test system: 786-0 renal
[2] = test system: A498 renal
[3] = test system: A549 NSCLC
[4] = test system: ACHN renal
[5] = test system: CAKI-1 renal
[6] = test system: CCRF-CEM leukemia
[7] = test system: COLO 205 colon
[8] = test system: DLD-1 colon
[9] = test system: DMS 114 small cell lung
[10] = test system: DMS 273 small cell lung
[11] = test system: EKVX NSCLC
[12] = test system: HCC-2998 colon
[13] = test system: HCT-116 colon
[14] = test system: HCT-15 colon
[15] = test system: HL-60(TB) leukemia
[16] = test system: HOP-18 NSCLC
[17] = test system: HOP-62 NSCLC
[18] = test system: HOP-92 NSCLC
[19] = test system: HT29 colon
[20] = test system: IGROV1 ovarian
[21] = test system: KM12 colon
[22] = test system: KM20L2 colon
[23] = test system: LXFL 529 NSCLC
[24] = test system: M14 melanoma
[25] = test system: M19-MEL melanoma
[26] = test system: MALME-3M melanoma
[27] = test system: MOLT-4 leukemia
[28] = test system: NCI-H226 lung
[29] = test system: NCI-H23 lung
[30] = test system: NCI-H460 lung
[31] = test system: NCI-H522 lung
[32] = test system: OVCAR-3 ovarian
[33] = test system: OVCAR-4 ovarian
[34] = test system: OVCAR-8 ovarian
[35] = test system: RXF 393 renal
[36] = test system: RXF-631 renal
[37] = test system: SF-268 CNS
[38] = test system: SF-295 CNS
[39] = test system: SF-539 CNS
[40] = test system: SK-MEL-2 melanoma
[41] = test system: SK-MEL-28 melanoma
[42] = test system: SK-MEL-5 melanoma
[43] = test system: SK-OV-3 ovarian
[44] = test system: SN12C renal
[45] = test system: SNB-19 CNS
[46] = test system: SNB-75 CNS
[47] = test system: SNB-78 CNS
[48] = test system: SR leukemia
[49] = test system: SW-620 colon
[50] = test system: TK-10 renal
[51] = test system: U251 CNS
[52] = test system: UACC-257 melanoma
[53] = test system: UACC-62 melanoma
[54] = test system: UO-31 renal
[55] = test system: K-562 leukemia
[56] = test system: LOX IMVI melanoma
[57] = test system: OVCAR-5 ovarian
[58] = test system: RPMI-8226 leukemia
[59] = test system: XF 498 CNS

Measured: TGI

CC(C)c1cccc2sc(NC(=O)C(=O)C(C#N)c3cccc4ccccc34)nc12 (configuration not stated)
95.4 µM: [46]
92.3 µM: [35]
97.9 µM: [18]
67.2 µM: [11]
> 100 µM: [1] | [2] | [3] | [4] | [5] | [6] | [7] | [8] | [9] | [10] | [12] | [13] | [14] | [15] | [16] | [17] | [19] | [20] | [21] | [22] | [23] | [24] | [25] | [26] | [27] | [28] | [29] | [30] | [31] | [32] | [33] | [34] | [36] | [37] | [38] | [39] | [40] | [41] | [42] | [43] | [44] | [45] | [47] | [48] | [49] | [50] | [51] | [52] | [53] | [54]

COc1ccc(C(C#N)Cc2cc(OC)c(OC)c(OC)c2)cc1 (configuration not stated)
54.4 µM: [38]
> 100 µM: [1] | [3] | [4] | [5] | [6] | [8] | [10] | [11] | [13] | [14] | [16] | [17] | [18] | [19] | [20] | [55] | [21] | [56] | [23] | [24] | [25] | [26] | [27] | [28] | [30] | [32] | [33] | [57] | [34] | [58] | [36] | [37] | [39] | [41] | [44] | [45] | [47] | [49] | [50] | [51] | [52] | [53] | [54]
37.3 µM: [42]
63.4 µM: [9]
49.3 µM: [7]
71.9 µM: [31]
45.2 µM: [35]
64.3 µM: [15]
73.1 µM: [2]

COC(=O)C1=CC2C(=O)OC1CC2C#N (configuration not stated)
> 100 µM: [1] | [2] | [3] | [4] | [5] | [6] | [7] | [8] | [9] | [10] | [12] | [13] | [15] | [16] | [17] | [18] | [19] | [20] | [55] | [21] | [22] | [56] | [23] | [24] | [26] | [27] | [28] | [29] | [30] | [31] | [32] | [33] | [34] | [58] | [37] | [38] | [39] | [41] | [42] | [43] | [44] | [45] | [46] | [47] | [48] | [49] | [50] | [51] | [52] | [53] | [54] | [59]

COc1ccc2ccccc2c1C1OC(=O)c2ccccc21 (configuration not stated)
> 100 µM: [1] | [2] | [3] | [4] | [5] | [6] | [7] | [8] | [9] | [10] | [11] | [12] | [14] | [15] | [16] | [17] | [18] | [19] | [20] | [55] | [21] | [22] | [56] | [24] | [25] | [26] | [27] | [28] | [29] | [31] | [32] | [33] | [57] | [34] | [58] | [36] | [37] | [38] | [39] | [42] | [43] | [44] | [45] | [47] | [49] | [50] | [51] | [52] | [53] | [54]
